Assay results reported in patent publication US20090156825A1, “Fluorescent compounds that bind to histone deacetylase” (priority 2007, published 2009).
“Also recorded” adds a separate entry of the source.

Target: T1, HDAC1 (Homo sapiens, UniProt Q13547)
T1 construct: Flag
Assay: Fluorescence polarization Kd determination of FITC-labeled compounds by HDAC1 titration
Format: binding
Settings: for time for binding to come to equilibrium: FP read over time after adding the FITC-labeled compound to HDAC1; for binding mechanism (exponential fit of Kd app versus time): replot of Kd app values vs. time, 1-phase or 2-phase exponential fit
Procedure: Titrations of HDAC1 were set up in 96-well black, flat-bottom plates. The concentrations of HDAC1 varied from 5 to 200 nM (with COMPOUND 1 and COMPOUND 2) or 20 to 450 nM (with COMPOUND 3). At time zero, the FITC-labeled compound was added and the plate inserted into the Analyst HT for FP detection. The samples were read every 5 seconds through ˜10 minutes (COMPOUND 1) or 2 hours (COMPOUND 2 and COMPOUND 3). The data at each time point was converted from mP to […] and plotted in Prism using an equation for ligand binding taking ligand-depletion into consideration (Equations 1-3) (An example of which is given in FIG. 1A).
where Lt is total fluorescently-labeled compound concentration, Rt is total HDAC concentration, Kd is the dissociation constant for the ligand to HDAC, Ab is the anisotropy when 100% of the ligand is bound, and Af is the anisotropy when 100% of the ligand is free. The values determined by the data as plotted in Figure A are Kd^app, Ab, and Af.
After determining the Kd^app for each time point, the Kd^app was replotted versus time (FIG. 1B) to determine true steady-state Kd. […] The plateau value of this exponential decay defines the steady-state Kd value.

T1 sequence (Q13547 whole entry): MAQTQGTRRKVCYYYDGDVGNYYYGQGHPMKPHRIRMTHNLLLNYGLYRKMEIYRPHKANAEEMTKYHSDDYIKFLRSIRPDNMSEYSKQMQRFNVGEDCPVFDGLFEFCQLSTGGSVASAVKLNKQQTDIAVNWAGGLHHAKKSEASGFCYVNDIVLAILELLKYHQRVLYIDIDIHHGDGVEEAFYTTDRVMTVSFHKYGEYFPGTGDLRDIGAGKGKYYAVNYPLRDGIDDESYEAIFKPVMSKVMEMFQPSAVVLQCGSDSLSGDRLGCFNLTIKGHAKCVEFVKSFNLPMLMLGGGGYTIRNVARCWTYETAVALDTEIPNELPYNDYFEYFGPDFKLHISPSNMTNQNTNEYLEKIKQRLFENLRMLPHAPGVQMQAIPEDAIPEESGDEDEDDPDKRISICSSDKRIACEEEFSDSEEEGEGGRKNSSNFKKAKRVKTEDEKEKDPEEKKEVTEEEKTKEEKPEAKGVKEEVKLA

O=C(CCCCCCC(=O)Nc1ccc(CNC(=S)Nc2ccc(-c3c4ccc(=O)cc-4oc4cc(O)ccc34)c(C(=O)O)c2)cc1)NO [COMPOUND 1, 5-({[(4-{[8-(hydroxyamino)-8-oxooctanoyl]amino}benzyl)amino]carbonothioyl}amino)-2-(6-hydroxy-3-oxo-3H-xanthen-9-yl)benzoic acid]
time for binding to come to equilibrium: faster than could be measured by the instrument used | Kd (plateau of Kd app replotted versus time, HDAC1 5 to 200 nM, FP detection, read-out: true steady-state Kd): 0.016 µM | binding mechanism (exponential fit of Kd app versus time): classical 1-step binding mechanism | binding mechanism (exponential fit of Kd app versus time) (listed as FITC-SAHA): fits 1-phase exponential curve quite well

Nc1ccc(-c2ccccc2)cc1NC(=O)c1ccc(CNC(=O)OCc2ccc(CNC(=S)Nc3ccc(-c4c5ccc(=O)cc-5oc5cc(O)ccc45)c(C(=O)O)c3)cc2)cc1 [COMPOUND 2, 5-{[({4-[({[(4-{[(4-aminobiphenyl-3-yl)amino]carbonyl}benzyl)amino]carbonyl}oxy)methyl]benzyl}amino)carbonothioyl]amino}-2-(6-hydroxy-3-oxo-3H-xanthen-9-yl)benzoic acid]
time for binding to come to equilibrium: 210 min | binding mechanism (exponential fit of Kd app versus time): requires a 2-phase exponential curve; also recorded: bound slowly with an induced-fit mechanism
